From BindingDB's records for doi:10.1021/jm3015052

Key:
[1] = biological target: Acetylcholinesterase (Homo sapiens, UniProt P22303); test: Inhibition of AChE (unknown origin)
[2] = biological target: T1, Diacylglycerol O-acyltransferase 1 (Homo sapiens, UniProt O75907); test: Inhibition of DGAT1 (unknown origin)
T1 sequence (O75907 whole entry): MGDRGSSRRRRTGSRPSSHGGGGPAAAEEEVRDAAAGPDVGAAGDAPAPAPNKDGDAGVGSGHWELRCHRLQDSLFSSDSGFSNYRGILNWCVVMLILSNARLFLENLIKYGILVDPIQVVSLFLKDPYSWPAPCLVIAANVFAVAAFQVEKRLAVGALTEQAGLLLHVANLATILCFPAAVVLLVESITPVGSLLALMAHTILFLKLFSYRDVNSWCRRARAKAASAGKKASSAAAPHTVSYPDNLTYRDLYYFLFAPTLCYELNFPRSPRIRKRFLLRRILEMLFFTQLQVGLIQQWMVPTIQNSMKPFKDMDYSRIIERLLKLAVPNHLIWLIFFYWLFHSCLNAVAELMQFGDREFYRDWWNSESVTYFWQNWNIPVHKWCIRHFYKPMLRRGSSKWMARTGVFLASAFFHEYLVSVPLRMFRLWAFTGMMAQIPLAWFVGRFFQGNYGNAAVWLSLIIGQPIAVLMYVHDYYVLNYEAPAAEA

[3] = biological target: T2, Tyrosine-protein phosphatase non-receptor type 1 (Homo sapiens, UniProt P18031); test: Inhibition of PTP1B (unknown origin)
T2 sequence (P18031 whole entry): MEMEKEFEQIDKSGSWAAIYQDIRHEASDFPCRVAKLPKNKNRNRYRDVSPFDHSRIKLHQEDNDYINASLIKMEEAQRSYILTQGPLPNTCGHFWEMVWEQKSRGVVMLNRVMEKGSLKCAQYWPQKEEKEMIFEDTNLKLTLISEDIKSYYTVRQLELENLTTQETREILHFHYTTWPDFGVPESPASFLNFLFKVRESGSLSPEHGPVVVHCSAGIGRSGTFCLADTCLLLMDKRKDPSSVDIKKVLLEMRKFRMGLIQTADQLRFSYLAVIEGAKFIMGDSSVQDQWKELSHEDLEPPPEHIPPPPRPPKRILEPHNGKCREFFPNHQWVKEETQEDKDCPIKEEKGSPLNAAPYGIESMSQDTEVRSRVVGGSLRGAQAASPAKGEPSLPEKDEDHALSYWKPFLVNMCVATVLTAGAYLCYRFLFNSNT

Chain of Acetylcholinesterase (P22303 whole entry): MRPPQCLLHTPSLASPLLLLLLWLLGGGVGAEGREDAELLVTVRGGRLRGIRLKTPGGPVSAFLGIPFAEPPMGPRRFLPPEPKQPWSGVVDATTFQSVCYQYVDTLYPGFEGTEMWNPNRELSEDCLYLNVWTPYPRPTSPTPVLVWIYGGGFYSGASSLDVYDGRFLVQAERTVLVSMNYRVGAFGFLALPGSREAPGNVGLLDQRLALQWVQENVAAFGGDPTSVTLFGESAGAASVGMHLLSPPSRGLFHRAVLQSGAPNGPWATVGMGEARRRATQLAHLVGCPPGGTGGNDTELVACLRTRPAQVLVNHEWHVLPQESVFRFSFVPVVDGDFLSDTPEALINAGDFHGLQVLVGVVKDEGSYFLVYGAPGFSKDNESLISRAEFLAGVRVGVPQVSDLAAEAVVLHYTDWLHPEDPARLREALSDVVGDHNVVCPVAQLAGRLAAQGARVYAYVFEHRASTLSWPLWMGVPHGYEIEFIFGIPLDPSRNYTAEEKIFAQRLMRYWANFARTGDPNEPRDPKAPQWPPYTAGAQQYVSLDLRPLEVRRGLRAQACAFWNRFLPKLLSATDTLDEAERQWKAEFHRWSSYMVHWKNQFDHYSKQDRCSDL

IC50 [2] [nM]	IC50 [3] [nM]	Compound	IC50 [1] [nM]
		COc1cc(/C=C2\Oc3cc(OCCN4CCCCC4)ccc3C2=O)cc(OC)c1OC	422
		COc1cc(/C=C2\Oc3cc(OCCN4CCCC4)ccc3C2=O)cc(OC)c1OC	643
		COc1ccc(/C=C2\Oc3cc(OCCN4CCCCC4)ccc3C2=O)cc1	845
		COc1ccc2c(c1)O/C(=C\c1ccc(OCCN3CCCCC3)c(Cl)c1)C2=O	160
		O=C1/C(=C/c2ccc(OCCN3CCCCC3)cc2)Oc2ccccc21	348
		O=C1/C(=C/c2ccc(OCCN3CCCC3)cc2)Oc2ccccc21	545
		CCOc1ccc2c(c1)O/C(=C\c1ccc(OCCN3CCCCC3)cc1)C2=O	45
35200	11300	CC(C)=CCc1c(O)ccc2c1O/C(=C\c1ccc(O)cc1)C2=O	
